Target: T1, Serine/threonine-protein kinase DCLK2 (Homo sapiens) (UniProt Q8N568)
T1 sequence (whole entry): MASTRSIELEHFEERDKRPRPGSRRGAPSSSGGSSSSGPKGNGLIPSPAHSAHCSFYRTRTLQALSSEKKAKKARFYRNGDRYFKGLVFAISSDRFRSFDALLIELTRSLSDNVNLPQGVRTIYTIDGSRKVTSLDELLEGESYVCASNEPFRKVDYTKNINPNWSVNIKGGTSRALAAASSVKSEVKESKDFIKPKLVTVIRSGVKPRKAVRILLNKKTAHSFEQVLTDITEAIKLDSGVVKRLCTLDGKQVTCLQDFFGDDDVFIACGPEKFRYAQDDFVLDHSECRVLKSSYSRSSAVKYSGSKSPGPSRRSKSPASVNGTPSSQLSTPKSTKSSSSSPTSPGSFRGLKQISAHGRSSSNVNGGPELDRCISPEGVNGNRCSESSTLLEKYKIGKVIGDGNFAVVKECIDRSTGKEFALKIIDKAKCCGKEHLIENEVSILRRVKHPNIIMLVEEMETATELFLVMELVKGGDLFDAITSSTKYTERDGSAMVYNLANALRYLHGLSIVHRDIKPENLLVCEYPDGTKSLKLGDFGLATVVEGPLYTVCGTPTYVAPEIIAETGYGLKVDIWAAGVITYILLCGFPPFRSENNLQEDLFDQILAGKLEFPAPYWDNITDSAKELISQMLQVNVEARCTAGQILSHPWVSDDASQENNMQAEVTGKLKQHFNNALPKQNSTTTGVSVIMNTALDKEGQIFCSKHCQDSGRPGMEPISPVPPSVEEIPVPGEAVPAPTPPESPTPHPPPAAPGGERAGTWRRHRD
Assay: Selectivity interaction (KinomeScan (DiscoverX)) EUB0000618a DCLK2
Conditions: at 10 µM

## O[C@H]1CC[C@H](Nc2ncc3nc(Nc4c(F)cc(F)cc4F)n([C@H]4CCOC4)c3n2)CC1
  % of control: 100%

From ChEMBL document CHEMBL5465560, “Selectivity Literature for EUbOPEN Chemogenomic Library” (2024)
